The source of these data is BindingDB's records for doi:10.1021/jm001134q (Linkoping University, 2001).

The target in the experiment is T1, Dimer of Gag-Pol polyprotein [489-587] (Human immunodeficiency virus 1, UniProt P12497).
T1 construct: 489-587
In words: Protease Inhibition Assay. As to conditions: pH 5; 30 °C. Here is the method:
A fluorimetric assay was used to determine the effects of the inhibitors on HIV-1 protease. This assay used an internally quenched fluorescent peptide substrate. The measurements were performed in 96-well plates with a Fluoroscan plate reader. Excitation and emission wavelengths were 355 nm and 500 nm, respectively.
In general, Ki refers to the dissociation constant of the complex between target and ligand, obtained from inhibition or displacement. Low values mean tighter binding, high ones weaker binding. Regarding `O=C(N[C@H]1c2ccccc2C[C@H]1O)[C@H](OCc1cc(F)ccc1F)[C@H](O)[C@@H](O)[C@@H](OCc1cc(F)ccc1F)C(=O)N[C@H]1c2ccccc2C[C@H]1O` [(2R,3R,4R,5R)-2,5-bis[(2,5-difluorophenyl)methoxy]-3,4-dihydroxy-N,N'-bis[(1S,2R)-2-hydroxy-2,3-dihydro-1H-inden-1-yl]hexanediamide], the Ki worked out at 3.29 nM.
The compound `O=C(N[C@H]1c2ccccc2C[C@H]1O)[C@H](OCc1ccccc1F)[C@H](O)[C@@H](O)[C@@H](OCc1ccccc1F)C(=O)N[C@H]1c2ccccc2C[C@H]1O` [(2R,3R,4R,5R)-2,5-bis[(2-fluorophenyl)methoxy]-3,4-dihydroxy-N,N'-bis[(1S,2R)-2-hydroxy-2,3-dihydro-1H-inden-1-yl]hexanediamide] yielded a Ki of 3.26 nM.
In turn, `O=C(N[C@H]1c2ccccc2C[C@H]1O)[C@H](OCc1cc(F)cc(F)c1)[C@H](O)[C@@H](O)[C@@H](OCc1cc(F)cc(F)c1)C(=O)N[C@H]1c2ccccc2C[C@H]1O` [(2R,3R,4R,5R)-2,5-bis[(3,5-difluorophenyl)methoxy]-3,4-dihydroxy-N,N'-bis[(1S,2R)-2-hydroxy-2,3-dihydro-1H-inden-1-yl]hexanediamide] had a Ki of 5 nM.
On to `O=C(N[C@H]1c2ccccc2C[C@H]1O)[C@H](OCc1cccc(F)c1)[C@H](O)[C@@H](O)[C@@H](OCc1cccc(F)c1)C(=O)N[C@H]1c2ccccc2C[C@H]1O` [(2R,3R,4R,5R)-2,5-bis[(3-fluorophenyl)methoxy]-3,4-dihydroxy-N,N'-bis[(1S,2R)-2-hydroxy-2,3-dihydro-1H-inden-1-yl]hexanediamide], for which the Ki came out at 7.13 nM.
For the compound `O=C(N[C@H]1c2ccccc2C[C@H]1O)[C@H](OCc1ccc(F)cc1)[C@H](O)[C@@H](O)[C@@H](OCc1ccc(F)cc1)C(=O)N[C@H]1c2ccccc2C[C@H]1O` [(2R,3R,4R,5R)-2,5-bis[(4-fluorophenyl)methoxy]-3,4-dihydroxy-N,N'-bis[(1S,2R)-2-hydroxy-2,3-dihydro-1H-inden-1-yl]hexanediamide], the affinity, expressed as Ki, was 5.39 nM.
As to `O=C(N[C@H]1c2ccccc2C[C@H]1O)[C@H](OCc1cccc(F)c1F)[C@H](O)[C@@H](O)[C@@H](OCc1cccc(F)c1F)C(=O)N[C@H]1c2ccccc2C[C@H]1O` [N1,N6-Bis-[(2R)-hydroxy-1(S)-indanyl]-(2R,3R,4R,5R)-2.5-bis-(2,3-difluorobenzyloxy)-3,4-dihydroxyhexanediamide], affinity was put at a Ki of 4 nM.
Consider `O=C(N[C@H]1c2ccccc2C[C@H]1O)[C@H](OCc1ccc(F)cc1F)[C@H](O)[C@@H](O)[C@@H](OCc1ccc(F)cc1F)C(=O)N[C@H]1c2ccccc2C[C@H]1O` [N1,N6-Bis-[(2R)-hydroxy-1(S)-indanyl]-(2R,3R,4R,5R)-2.5-bis-(2,4-difluorobenzyloxy)-3,4-dihydroxyhexanediamide], for which the Ki is 1.65 nM.
`O=C(N[C@H]1c2ccccc2C[C@H]1O)[C@H](OCc1c(F)cccc1F)[C@H](O)[C@@H](O)[C@@H](OCc1c(F)cccc1F)C(=O)N[C@H]1c2ccccc2C[C@H]1O` [N1,N6-Bis-[(2R)-hydroxy-1(S)-indanyl]-(2R,3R,4R,5R)-2.5-bis-(2,6-difluorobenzyloxy)-3,4-dihydroxyhexanediamide] came in with a Ki of 1.64 nM.
As for `O=C(N[C@H]1c2ccccc2C[C@H]1O)[C@H](OCc1ccc(F)c(F)c1)[C@H](O)[C@@H](O)[C@@H](OCc1ccc(F)c(F)c1)C(=O)N[C@H]1c2ccccc2C[C@H]1O` [N1,N6-Bis-[(2R)-hydroxy-1(S)-indanyl]-(2R,3R,4R,5R)-2.5-bis-(3,4-difluorobenzyloxy)-3,4-dihydroxyhexanediamide], the Ki is 3.9 nM.
`O=C(N[C@H]1c2ccccc2C[C@H]1O)[C@H](OCc1ccccc1)[C@H](O)[C@@H](O)[C@@H](OCc1ccccc1)C(=O)N[C@H]1c2ccccc2C[C@H]1O` [symmetric/asymmetric inhibitor 2] displayed a Ki of 1.22 nM.
